Experimental data: patent US20240415914A1, “Water Dispersible Cannabinoid Compositions” (priority 2021, published 2024)

Experiment: Stability of cannabinoid and Vitamin E components of Beverage 1 (AB White) stored at 8° C. and 21-25° C., LCMSMS over 570 days
Assay type: physicochemical
Conditions: for Stability in AB White, 8° C. (content by LCMSMS): beverage stored at 8° C.; for Stability in AB White, 21-25° C. (content by LCMSMS): beverage stored at 21-25° C.
Procedure: The LCMSMS was calibrated for 0-1000 ng/ml cannabinoids with the same resin material used in the preparation of the concentrates. At each time period, 100 ml of beverage was diluted with 10 ml of methanol and injected into the LCMSMS for analysis.

C=C(C)[C@@H]1CCC(C)=C[C@H]1c1c(O)cc(CCC)cc1O [CBDV, cannabidivarin]
0.149 µg/mL: Stability in AB White, 8° C. (content by LCMSMS) (day 19) | Stability in AB White, 8° C. (content by LCMSMS) (day 22) | Stability in AB White, 8° C. (content by LCMSMS) (day 23) | Stability in AB White, 8° C. (content by LCMSMS) (day 25) | Stability in AB White, 21-25° C. (content by LCMSMS) (day 1) | Stability in AB White, 21-25° C. (content by LCMSMS) (day 3) | Stability in AB White, 21-25° C. (content by LCMSMS) (day 26) | Stability in AB White, 21-25° C. (content by LCMSMS) (day 60)
0.146 µg/mL: Stability in AB White, 8° C. (content by LCMSMS) (day 1) | Stability in AB White, 8° C. (content by LCMSMS) (day 3) | Stability in AB White, 8° C. (content by LCMSMS) (day 9) | Stability in AB White, 8° C. (content by LCMSMS) (day 17) | Stability in AB White, 8° C. (content by LCMSMS) (day 18) | Stability in AB White, 8° C. (content by LCMSMS) (day 90) | Stability in AB White, 8° C. (content by LCMSMS) (day 330) | Stability in AB White, 21-25° C. (content by LCMSMS) (day 150) | Stability in AB White, 21-25° C. (content by LCMSMS) (day 360) | Stability in AB White, 21-25° C. (content by LCMSMS) (day 390)
0.139 µg/mL: Stability in AB White, 8° C. (content by LCMSMS) (day 540) | Stability in AB White, 21-25° C. (content by LCMSMS) (day 510)
0.138 µg/mL: Stability in AB White, 8° C. (content by LCMSMS) (day 510) | Stability in AB White, 8° C. (content by LCMSMS) (day 570) | Stability in AB White, 21-25° C. (content by LCMSMS) (day 570)
0.151 µg/mL: Stability in AB White, 8° C. (content by LCMSMS) (day 29) | Stability in AB White, 21-25° C. (content by LCMSMS) (day 15) | Stability in AB White, 21-25° C. (content by LCMSMS) (day 18) | Stability in AB White, 21-25° C. (content by LCMSMS) (day 30)
0.140 µg/mL: Stability in AB White, 21-25° C. (content by LCMSMS) (day 540)
0.141 µg/mL: Stability in AB White, 21-25° C. (content by LCMSMS) (day 120) | Stability in AB White, 21-25° C. (content by LCMSMS) (day 180)
0.143 µg/mL: Stability in AB White, 8° C. (content by LCMSMS) (day 60) | Stability in AB White, 8° C. (content by LCMSMS) (day 270) | Stability in AB White, 8° C. (content by LCMSMS) (day 300) | Stability in AB White, 8° C. (content by LCMSMS) (day 390) | Stability in AB White, 8° C. (content by LCMSMS) (day 480) | Stability in AB White, 21-25° C. (content by LCMSMS) (day 90) | Stability in AB White, 21-25° C. (content by LCMSMS) (day 420) | Stability in AB White, 21-25° C. (content by LCMSMS) (day 480)
0.148 µg/mL: Stability in AB White, 8° C. (content by LCMSMS) (day 8) | Stability in AB White, 8° C. (content by LCMSMS) (day 10) | Stability in AB White, 8° C. (content by LCMSMS) (day 16) | Stability in AB White, 8° C. (content by LCMSMS) (day 30) | Stability in AB White, 21-25° C. (content by LCMSMS) (day 2) | Stability in AB White, 21-25° C. (content by LCMSMS) (day 9) | Stability in AB White, 21-25° C. (content by LCMSMS) (day 19) | Stability in AB White, 21-25° C. (content by LCMSMS) (day 22) | Stability in AB White, 21-25° C. (content by LCMSMS) (day 23) | Stability in AB White, 21-25° C. (content by LCMSMS) (day 270)
0.142 µg/mL: Stability in AB White, 21-25° C. (content by LCMSMS) (day 210) | Stability in AB White, 21-25° C. (content by LCMSMS) (day 300)
0.145 µg/mL: Stability in AB White, 8° C. (content by LCMSMS) (day 240) | Stability in AB White, 8° C. (content by LCMSMS) (day 360) | Stability in AB White, 8° C. (content by LCMSMS) (day 450) | Stability in AB White, 21-25° C. (content by LCMSMS) (day 8) | Stability in AB White, 21-25° C. (content by LCMSMS) (day 16) | Stability in AB White, 21-25° C. (content by LCMSMS) (day 24) | Stability in AB White, 21-25° C. (content by LCMSMS) (day 25) | Stability in AB White, 21-25° C. (content by LCMSMS) (day 240)
0.152 µg/mL: Stability in AB White, 8° C. (content by LCMSMS) (day 26) | Stability in AB White, 21-25° C. (content by LCMSMS) (day 12)
0.147 µg/mL: Stability in AB White, 8° C. (content by LCMSMS) (day 2) | Stability in AB White, 8° C. (content by LCMSMS) (day 5) | Stability in AB White, 8° C. (content by LCMSMS) (day 24) | Stability in AB White, 8° C. (content by LCMSMS) (day 210) | Stability in AB White, 21-25° C. (content by LCMSMS) (day 10) | Stability in AB White, 21-25° C. (content by LCMSMS) (day 29)
0.150 µg/mL: Stability in AB White, 8° C. (content by LCMSMS) (day 0) | Stability in AB White, 8° C. (content by LCMSMS) (day 11) | Stability in AB White, 8° C. (content by LCMSMS) (day 12) | Stability in AB White, 8° C. (content by LCMSMS) (day 15) | Stability in AB White, 8° C. (content by LCMSMS) (day 150) | Stability in AB White, 8° C. (content by LCMSMS) (day 180) | Stability in AB White, 21-25° C. (content by LCMSMS) (day 0) | Stability in AB White, 21-25° C. (content by LCMSMS) (day 11) | Stability in AB White, 21-25° C. (content by LCMSMS) (day 17)
0.144 µg/mL: Stability in AB White, 8° C. (content by LCMSMS) (day 120) | Stability in AB White, 8° C. (content by LCMSMS) (day 420) | Stability in AB White, 21-25° C. (content by LCMSMS) (day 5) | Stability in AB White, 21-25° C. (content by LCMSMS) (day 330) | Stability in AB White, 21-25° C. (content by LCMSMS) (day 450)
